According to patent US11622964B2, “Method for destroying cellular mechanical homeostasis and promoting regeneration and repair of tissues and organs, and use thereof” (INSTITUTE OF ZOOLOGY, CHINESE ACADEMY OF SCIENCES, priority 2018, dated 2023):
Entries after “also recorded” stand apart in the source; their conditions may differ.

Legend:
[1] = tested on: bleomycin-induced pulmonary fibrosis; assay: Bleomycin-induced pulmonary fibrosis model; format: in vivo, mice; settings: 1-3 mg/kg/day
Procedure: In the invention, bleomycin (BLM) is instilled into pulmonary tracheal of ICR or C57Bl/6 mice to successfully construct a mouse model of pulmonary fibrosis, and the mice are treated by intraperitoneal administration of myosin inhibitor (−)-blebbistatin. […] The detailed processes of injecting bleomycin are as follows:
(1) Dilution of bleomycin: 50 mg/ml stock solution is diluted 25 times to obtain a final concentration of 2 mg/ml.
(2) The mice are anesthetized by intraperitoneal injection of 0.5% sodium pentobarbital (100 μl/10 g b.w.).
(3) The neck skin is disinfected by 75% alcohol, cutting the neck skin and bluntly separating the mucosa and muscles of the trachea, exposing the trachea, and taking care not to damage the thyroid.
(4) 50 μl (20 g body weight) of bleomycin is injected into the interval of tracheal cartilage by an insulin syringe at a dose of 5 mg/kg. After the needle is pulled out, putting the console upright, rotating left and right for 1 min, and then the skin is sutured. The mice eat food and drink water freely after spontaneously awakening.
The mice are identified and divided into two groups: DMSO (indicated as “Con” in FIG. 8) and (−)-blebbistatin (indicated as “Bleb” in FIG. 8, 1-3 mg/kg/day) are respectively administrated by intraperitoneal injection, wherein they are respectively dissolved in 2-5% DMSO+30% PEG400+2% Tween80+ddH2O. The survival status of the mice is recorded with intraperitoneal injection/day, tail vein injection/3 days. The result is shown in FIG. 8B, all the mice in the control group died on day 8 of treatment, while the mice in the Bleb treatment group have a survival rate of 40% on day 15 of treatment.
(6) Small animal CT scanning is performed on D8 (modeling on D14), the samples are taken and fixed after heart perfusion, slicing the samples and performing H&E and Sirius red staining. The result is shown in FIG. 8D, (−)-blebbistatin inhibits tissue damage and fibrosis during bleomycin-induced lung damage.

[2] = tested on: mouse embryonic fibroblasts (MEFs); assay: TGF-β1-induced transformation of mouse embryonic fibroblasts into myofibroblasts; format: cell-based
Excerpt: (§1) In this example, cell models for in vitro fibrosis are respectively built to activate mouse hepatic stellate Cells (mHSCs, FIG. 13(B)), mouse embryonic fibroblasts (MEFs FIG. 13(C)), mouse adult liver, lung, and heart-derived primary mesenchymal cells (priMCs, FIG. 13(D)), and human hepatic stellate cells (hLX-2, FIG. 13(E)) into myofibroblasts through the induction of TGF-β1. The specific experimental procedure is as shown in FIG. 9A: a medium containing 10% serum is used for the initial cell culture; after 24 hours the medium is replaced with low serum medium (or pre-starvation treatment for 16 hours) while adding 3 ng/ml TGF-β1 with DMSO or Bleb (20 μM); after 7 days the expression of myofibroblast activation marker protein (Acta2), collagen (Col1a1, Col1a2, Col3a1, and Col1a2), and matrix metalloproteinases and inhibitors (collagenases: MmP8, and MmP13; gelatinases: MmP2, and MmP9; a metalloproteinase inhibitor: Timp1/2/3) are identified.

[3] = tested on: mouse hepatic stellate cells (mHSCs); assay: TGF-β1-induced transformation of mouse hepatic stellate cells into myofibroblasts; format: cell-based; settings: 20 μM, 3 ng/ml TGF-β1, 7 days
Excerpt: as §1

[4] = tested on: bleomycin-induced skin sclerosis; assay: Bleomycin-induced scleroderma model; format: in vivo, mice; settings: 1-3 mg/kg/day intraperitoneal
Excerpt: Scleroderma is a connective tissue disease characterized by localized or diffuse fibrosis of the skin and internal organs, thereby hardening and shrinking. The disease may cause multisystem injury, its exact cause and pathogenesis are still unclear, and there is no effective treatment means. […] One week after injection of bleomycin, the skin at the injection site on the back of mice begins to thicken and harden, and has poor elasticity; there is no change in hair growth until the end of the injection; meanwhile, induration and incrustation occurs at the injection site, accompanying with superficial ulcers. As for the shaved injection area on the back of the mice in the saline control group, the hair grows continuously, and no significant skin hardening and thickening phenomenon is observed, as shown in FIG. 7B. Treatment group (Bleb): intraperitoneal administration of myosin inhibitor (−)-blebbistatin (1-3 mg/kg/day, dissolved in 2-5% DMSO+30% PEG400+2% Tween 80+ddH2O); control group (con): without (−)-blebbistatin but containing the same amount of DMSO. […] Further experiments confirm that the myosin inhibitor (−)-blebbistatin promotes melanin accumulation in the induration zone and the growth of new hair, as shown in FIG. 7C.

[5] = tested on: bile duct ligation-induced fibrosis; assay: Bile duct ligation-induced hepatic fibrosis model; format: in vivo, mice
Procedure: The ICR, C57Bl/6 mice used in the experiment are purchased from SPF (Beijing) Biotechnology Co., Ltd.; elbow tweezers, finger tweezers, scissors, needle holders, suture needles, suture threads are purchased from Asone Trading Co., Ltd.; antibiotics are purchased from Gibco (15240-062). 8 week-old female mice are used, and they are fasted for 24 hours before the experiment. The mice are anesthetized with 5% chloral hydrate, and intraperitoneally injected with 8 ml/kg. The mice are fixed after anesthesia, and an incision is made in the abdomen to expose the organs. The duodenum of the stomach end is found and gently pulled to find the bile duct, carefully peeling off the bile duct with tweezers, ligating the bile duct with suture thread, then adding antibiotics, and suturing to close the abdominal cavity. The mice are fasted for 12 hours after surgery. 14-20 days after surgery, the skin of the mice is observed to be yellow-green, and drug is administered to mice for treatment. The mice in the modeling group are evenly divided into two groups, and the mice of experimental group are intraperitoneally injected with (−)-blebbistatin. As for the administration method, (−)-blebbistatin is dissolved in DMSO; sequentially adding 2-5% DMSO (final concentration, volume ratio)+30% PEG400 (final concentration, volume ratio)+2% Tween 80 (final concentration, volume ratio), the mice of the control group are injected with a solvent without the small molecule but containing an equal amount of DMSO (denoted as “Con”).

[6] = tested on: human hepatic stellate cells (hLX-2); assay: TGF-β1-induced transformation of human hepatic stellate cells into myofibroblasts; format: cell-based; settings: 20 μM, 3 ng/ml TGF-β1, 7 days
Excerpt: as §1

Cc1ccc2c(c1)C(=O)[C@]1(O)CCN(c3ccccc3)C1=N2 [(−)-blebbistatin]
decrease in lung volume (small animal CT) [1]: inhibits the decrease
lung tissue damage (H&E staining) [1]: inhibits
pulmonary fibrosis (Sirius red staining, statistical analysis) [1]: inhibiting pulmonary fibrosis; also recorded: significantly improves; also recorded: inhibits
survival of mice with pulmonary fibrosis (in words) [1]: significantly promoting survival
decrease in lung volume (small animal CT) ([1]; listed as Bleb): significantly inhibits
lung tissue damage (H&E staining) ([1]; listed as Bleb): relieves lung damage
pulmonary fibrosis (Sirius red staining, statistical analysis) ([1]; listed as Bleb): relieves pulmonary fibrosis
survival of mice with pulmonary fibrosis (in words) ([1]; listed as Bleb): significantly increases
survival rate ([1]; day 15 of treatment, 10 mice per group): 40%
TGF-β1 induced transformation into myofibroblasts and extracellular matrix synthesis ([2]; 20 μM, 3 ng/ml TGF-β1, 7 days): significantly inhibits
stretched state / fibrous morphology of MEFs ([2]; compared with DMSO, S-Bleb-OB 20 μM): may destroy the stretched state
TGF-β1-induced myofibroblast activation ([2]; scheme as Example 9-1, S-Bleb-OB 20 μM): have an inhibitory effect
TGF-β1 induced transformation into myofibroblasts and extracellular matrix synthesis [3]: significantly inhibits
FGF9 expression (immunofluorescence) [4]: more FGF9 is expressed
KRT17 positive cells relative to KRT18 positive cells (immunostaining) [4]: much more
NeuN expression in the induration zone (neural fate) [4]: expressed in some cells
accumulation of mesenchymal fibers (H&E and Masson staining) [4]: significantly reduces
epidermal and dermal thickness [4]: significantly reduces
hair follicle cell proliferation (Ki-67 staining) [4]: promotes
hair follicle regeneration (KRT17/PCNA co-immunostaining) [4]: promotes hair follicle regeneration
melanin accumulation in the induration zone and growth of new hair [4]: promotes
number of hair follicles or glands [4]: promotes
degree of induration and incrustation ([4]; after 3 weeks of treatment): significantly reduced
accumulation of collagenous fibers (Sirius Red) ([5]; after 15 days of treatment): significantly inhibited
proliferation of myofibroblasts (α-SMA staining) ([5]; after 15 days of treatment): significantly inhibited
accumulation of collagenous fibers (Sirius Red) ([5]; after 30 days of treatment): significantly inhibits
hepatocyte proliferation (Ki-67 staining) ([5]; during the bile duct ligation process): promotes
state of the mice ([5]; intraperitoneal injection): more active and energetic
TGF-β1 induced transformation into myofibroblasts and extracellular matrix synthesis [6]: significantly inhibits
inhibitors of metalloproteinases [6]: down-regulation
metalloproteinases for degrading extracellular matrix [6]: promoting the up-regulation
